Read-outs that look alike come from different tables or passages of the source.
Biological target: T1, F508del in NIH 3T3 cells (Homo sapiens, UniProt P13569, DEL508-508)
T1 construct: expressed in transfected cells
Experiment: 3T3 assay: membrane potential optical assay for F508del correction
Format: cell-based
Description: 1. Membrane Potential Optical Methods for Assaying F508del Modulation Properties of Compounds
The assay utilizes fluorescent voltage sensing dyes to measure changes in membrane potential using a fluorescent plate reader (e.g., FLTPR III, Molecular Devices, Inc.) as a readout for increase in functional F508del in NIH 3T3 cells. The driving force for the response is the creation of a chloride ion gradient in conjunction with channel activation by a single liquid addition step after the cells have previously been treated with compounds and subsequently loaded with a voltage sensing dye.
2. Identification of Corrector Compounds
To identify correctors of F508del, a single-addition HTS assay format was developed. This HTS assay utilizes fluorescent voltage sensing dyes to measure changes in membrane potential on the FLIPR III as a measurement for increase in gating (conductance) of F508del in F508del NUT 3T3 cells. The F508del NUT 3T3 cell cultures were incubated with the corrector compounds at a range of concentrations for 18-24 hours at 37° C., and subsequently loaded with a redistribution dye. The driving force for the response is a Cl^− ion gradient in conjunction with channel activation with forskolin in a single liquid addition step using a fluorescent plate reader such as FLIPR III.
Bath Solution #1: (in mM) NaCl 160, KCl 4.5, CaCl2 2, MgCl2 1, HEPES 10, pH 7.4 with NaOH.
Chloride-free bath solution: Chloride salts in Bath Solution #1 (above) are substituted with gluconate salts.
NIH3T3 mouse fibroblasts stably expressing F508del were used for optical measurements of membrane potential. The cells were maintained at 37° C. in 5% CO2 and 90% humidity in Dulbecco's modified Eagle's medium supplemented with 2 mM glutamine, 10% fetal bovine serum, 1×NEAA, b-ME, 1×pen/strep, and 25 mM HEPES in 175 cm^2 culture flasks. For all optical assays, the cells were seeded at ˜20,000/well in 384-well Matrigel-coated plates. For the correction assays, the cells were cultured at 37° C. with and without compounds for 16-24 hours.

[1] = NIH3T3, NIH 3T3 cells, F508del, read-out: 3T3 Max Activity (%)
[2] = NIH 3T3 cells, F508del, read-out: 3T3 EC50
[3] = NIH3T3, read-out: 3T3 Max Activity (%)

T1 sequence (P13569 with tags, fused parts or gaps DEL508-508): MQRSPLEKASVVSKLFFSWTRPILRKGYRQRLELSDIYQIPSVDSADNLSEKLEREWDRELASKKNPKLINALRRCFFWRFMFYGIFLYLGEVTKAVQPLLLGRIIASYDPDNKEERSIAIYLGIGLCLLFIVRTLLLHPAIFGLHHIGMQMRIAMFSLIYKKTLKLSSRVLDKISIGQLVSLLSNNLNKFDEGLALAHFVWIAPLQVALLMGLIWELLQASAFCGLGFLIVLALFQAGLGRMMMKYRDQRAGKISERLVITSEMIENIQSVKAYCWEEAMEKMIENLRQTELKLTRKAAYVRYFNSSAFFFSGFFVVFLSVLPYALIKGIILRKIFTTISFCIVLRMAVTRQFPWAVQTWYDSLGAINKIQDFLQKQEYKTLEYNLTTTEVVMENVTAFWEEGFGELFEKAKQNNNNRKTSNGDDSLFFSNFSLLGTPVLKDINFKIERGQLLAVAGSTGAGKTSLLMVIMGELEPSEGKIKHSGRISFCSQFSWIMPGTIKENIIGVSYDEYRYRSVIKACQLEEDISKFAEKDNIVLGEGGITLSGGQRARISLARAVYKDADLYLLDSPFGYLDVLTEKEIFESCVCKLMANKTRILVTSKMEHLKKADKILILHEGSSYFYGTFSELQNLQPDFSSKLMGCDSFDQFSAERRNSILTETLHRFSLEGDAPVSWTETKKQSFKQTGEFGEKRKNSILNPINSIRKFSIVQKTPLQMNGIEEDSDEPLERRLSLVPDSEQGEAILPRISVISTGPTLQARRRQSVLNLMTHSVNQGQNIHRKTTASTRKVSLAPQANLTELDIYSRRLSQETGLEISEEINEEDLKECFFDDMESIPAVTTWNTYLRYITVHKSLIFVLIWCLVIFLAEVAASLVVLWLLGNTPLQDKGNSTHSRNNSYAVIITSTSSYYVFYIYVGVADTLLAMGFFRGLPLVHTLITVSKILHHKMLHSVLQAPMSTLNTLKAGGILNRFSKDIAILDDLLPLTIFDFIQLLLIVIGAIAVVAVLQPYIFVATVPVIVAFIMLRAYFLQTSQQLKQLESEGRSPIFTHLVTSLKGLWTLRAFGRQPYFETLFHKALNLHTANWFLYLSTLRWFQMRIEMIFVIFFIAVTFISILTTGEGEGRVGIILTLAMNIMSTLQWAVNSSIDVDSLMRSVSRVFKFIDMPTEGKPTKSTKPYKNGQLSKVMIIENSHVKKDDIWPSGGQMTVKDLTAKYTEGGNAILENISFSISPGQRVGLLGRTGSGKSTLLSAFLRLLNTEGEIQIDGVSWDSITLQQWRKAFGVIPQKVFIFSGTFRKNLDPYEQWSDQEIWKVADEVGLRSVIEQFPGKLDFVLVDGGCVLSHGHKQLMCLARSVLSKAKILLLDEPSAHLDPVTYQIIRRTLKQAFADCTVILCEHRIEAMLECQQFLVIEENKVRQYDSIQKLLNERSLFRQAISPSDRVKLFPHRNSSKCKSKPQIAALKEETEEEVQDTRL

SMILES	Emax [1] [%]	EC50 [2] [µM]	Emax [3] [%]	EC50 [µM]
CCCc1sc(NS(=O)(=O)c2ccccc2)nc1-c1ccc(C)cc1C [Compound 6, N-[4-(2,4-dimethylphenyl)-5-propyl-thiazol-2-yl]benzenesulfonamide]		< 1	> 60	
Cc1cc(C)c(-n2nc(NS(=O)(=O)c3ccccc3)cc2C(C)C)c(C)c1 [Compound 66, N-[5-isopropyl-1-(2,4,6-trimethylphenyl)pyrazol-3-yl]benzenesulfonamide]	30 to 60	1 to 3		
Cc1ccccc1-c1cn(-c2cccc(Cl)c2)nc1NS(=O)(=O)c1ccccc1 [Compound 95, N-[1-(3-chlorophenyl)-4-(o-tolyl)pyrazol-3-yl]benzenesulfonamide]	< 30			
O=S(=O)(Nc1nc(-c2ccccc2)c(Oc2ccccc2)s1)c1ccccc1 [Compound 11, N-(5-phenoxy-4-phenyl-thiazol-2-yl)benzenesulfonamide]	< 30			
O=C(O)c1sc(NS(=O)(=O)c2ccccc2)nc1-c1ccccc1 [Compound 42, 4-phenyl-2-(phenylsulfonamido)thiazole-5-carboxylic acid]	30 to 60			
Cc1cc(C)c(-n2nc(NS(=O)(=O)c3ccccc3)cc2C2=CCCCC2)c(C)c1 [Compound 63, N-[5-(cyclohexen-1-yl)-1-(2,4,6-trimethylphenyl)pyrazol-3-yl]benzenesulfonamide]	> 60	1 to 3		
C=C(C)c1cn(-c2c(C)cc(C)cc2C)nc1NS(=O)(=O)c1ccccc1 [Compound 97, N-[4-isopropenyl-1-(2,4,6-trimethylphenyl)pyrazol-3-yl]benzenesulfonamide]	< 30			
C=C(C)c1cn(-c2cccc(Cl)c2)nc1NS(=O)(=O)c1ccccc1 [Compound 86, N-[1-(3-chlorophenyl)-4-isopropenyl-pyrazol-3-yl]benzenesulfonamide]	30 to 60	3 to 30		
O=S(=O)(Nc1nn(-c2cccc(Cl)c2)cc1-c1cccc(Cl)c1)c1ccccc1 [Compound 70, N-[1,4-bis(3-chlorophenyl)pyrazol-3-yl]benzenesulfonamide]			30 to 60	< 1
Cc1ccc(-n2nc(NS(=O)(=O)c3ccccc3)cc2C(C)(C)C)cc1 [Compound 80, N-[5-tert-butyl-1-(p-tolyl)pyrazol-3-yl]benzenesulfonamide]	30 to 60			
Nc1cccc(S(=O)(=O)Nc2nc(-c3ccccc3)c(Cc3cccc(C(=O)O)c3)s2)c1 [Compound 28, 3-[[2-[(3-aminophenyl)sulfonylamino]-4-phenyl-thiazol-5-yl]methyl]benzoic acid]	< 30			
COC(=O)c1sc(NS(=O)(=O)c2ccccc2)nc1-c1ccc(C)cc1 [Compound 13, methyl 2-(benzenesulfonamido)-4-(p-tolyl)thiazole-5-carboxylate]	> 60	3 to 30		
O=C(c1sc(NS(=O)(=O)c2ccccc2)nc1-c1ccccc1)N1CCCCC1 [Compound 34, N-[4-phenyl-5-(piperidine-1-carbonyl)thiazol-2-yl]benzenesulfonamide]	< 30			
Cc1nc(NS(=O)(=O)c2ccccc2)sc1-c1ccccc1 [Compound 26, N-(4-methyl-5-phenyl-thiazol-2-yl)benzenesulfonamide]		1 to 3	> 60	
Cc1sc(NS(=O)(=O)c2ccccc2)nc1-c1ccccc1 [Compound 23, N-(5-methyl-4-phenyl-thiazol-2-yl)benzenesulfonamide]	> 60	3 to 30		
CCCc1sc(NS(=O)(=O)c2ccccc2)nc1-c1ccc(OC)cc1 [Compound 20, N-[4-(4-methoxyphenyl)-5-propyl-thiazol-2-yl]benzenesulfonamide]	> 60	1 to 3		
O=S(=O)(Nc1nn(-c2cccc(Cl)c2)cc1-c1ccccc1Cl)c1ccccc1 [Compound 89, N-[4-(2-chlorophenyl)-1-(3-chlorophenyl)pyrazol-3-yl]benzenesulfonamide]	< 30			
CCCc1sc(NS(=O)(=O)c2ccccc2)nc1-c1ccc(OCC)cc1 [Compound 19, N-[4-(4-ethoxyphenyl)-5-propyl-thiazol-2-yl]benzenesulfonamide]	30 to 60	1 to 3		
Nc1cccc(S(=O)(=O)Nc2nc(-c3ccccc3)c(Cc3ccccc3)s2)c1 [Compound 9, 3-amino-N-(5-benzyl-4-phenyl-thiazol-2-yl)benzenesulfonamide]	30 to 60	1 to 3		
Cc1ccc(C)c(-c2nc(NS(=O)(=O)c3ccccc3)sc2C)c1 [Compound 8, N-[4-(2,5-dimethylphenyl)-5-methyl-thiazol-2-yl]benzenesulfonamide]		< 1	> 60	
Cc1cc(C)c(-n2nc(NS(=O)(=O)c3ccccc3)cc2C2CCCCC2)c(C)c1 [Compound 64, N-[5-cyclohexyl-1-(2,4,6-trimethylphenyl)pyrazol-3-yl]benzenesulfonamide]	> 60	< 1		
COc1cccc(-c2cc(NS(=O)(=O)c3ccccc3)nn2-c2c(C)cc(C)cc2C)c1 [Compound 50, N-[5-(3-methoxyphenyl)-1-(2,4,6-trimethylphenyl)pyrazol-3-yl]benzenesulfonamide]			> 60	1 to 3

The next lines start with results.

Emax [1] [%]	EC50 [2] [µM]	SMILES	Emax [3] [%]	EC50 [µM]
> 60	1 to 3	Cc1cc(C)cc(-c2nc(NS(=O)(=O)c3ccccc3)cc(C)c2C)c1 [Compound 155]		
< 30		Cc1ccccc1-c1cn(Cc2ccccc2)nc1NS(=O)(=O)c1ccccc1 [Compound 115]		
30 to 60	1 to 3	Cc1ccc(-c2cn(Cc3ccccc3)nc2NS(=O)(=O)c2ccccc2)cc1 [Compound 101, N-[1-benzyl-4-(p-tolyl)pyrazol-3-yl]benzenesulfonamide]		
< 30		CC(C)=Cc1cn(Cc2ccccc2)nc1NS(=O)(=O)c1ccccc1 [Compound 104, N-[1-benzyl-4-(2-methylprop-1-enyl)pyrazol-3-yl]benzenesulfonamide]		
< 30		O=S(=O)(Nc1nn(Cc2ccccc2)cc1-c1ccccc1)c1ccccc1 [Compound 107, N-(1-benzyl-4-phenyl-pyrazol-3-yl)benzenesulfonamide]		
30 to 60	1 to 3	O=c1c(NS(=O)(=O)c2ccccc2)nc(-c2ccccc2)cn1-c1ccccc1 [Compound 120, N-(3-oxo-4,6-diphenyl-pyrazin-2-yl)benzenesulfonamide]		
30 to 60	1 to 3	O=S(=O)(NC1=NC(c2ccccc2)C=C(c2ccccc2)S1)c1ccccc1 (stereo not drawn) [Compound 117, N-(4,6-diphenyl-4H-1,3-thiazin-2-yl)benzenesulfonamide]		
> 60	3 to 30	Cc1cc(C)cc(-c2nc(NS(=O)(=O)c3ccccc3)ccc2C)c1 [Compound 149]		
30 to 60		O=S(=O)(Nc1nn(Cc2ccccc2)cc1-c1ccc(Cl)cc1)c1ccccc1 [Compound 108, N-[1-benzyl-4-(4-chlorophenyl)pyrazol-3-yl]benzenesulfonamide]		
> 60	1 to 3	Cc1ccc(C)c(-c2nc(NS(=O)(=O)c3ccccc3)ccc2C)c1 [Compound 138, N-[6-(2,5-Dimethylphenyl)-5-methyl-2-pyridyl]benzenesulfonamide]		
< 30		C=C(C)c1cn(Cc2ccccc2)nc1NS(=O)(=O)c1ccccc1 [Compound 105, N-(1-benzyl-4-isopropenyl-pyrazol-3-yl)benzenesulfonamide]		
< 30		COc1cccc(-c2cn(Cc3ccccc3)nc2NS(=O)(=O)c2ccccc2)c1 [Compound 112]		
> 60	1 to 3	C/C=C/c1ccc(NS(=O)(=O)c2ccccc2)nc1Oc1ccccc1 [Compound 141, N-[6-phenoxy-5-[(E)-prop-1-enyl]-2-pyridyl]benzenesulfonamide]		
30 to 60	3 to 30	Cc1cc(C)cc(-c2cc(C)cc(NS(=O)(=O)c3ccccc3)n2)c1 [Compound 151]		
< 30		Cc1cccc(-c2cn(Cc3ccccc3)nc2NS(=O)(=O)c2ccccc2)c1 [Compound 114, N-[1-benzyl-4-(m-tolyl)pyrazol-3-yl]benzenesulfonamide]		
< 30		COc1ccc(-c2cn(Cc3ccccc3)nc2NS(=O)(=O)c2ccccc2)cc1 [Compound 111, N-[1-benzyl-4-(4-methoxyphenyl)pyrazol-3-yl]benzenesulfonamide]		
< 30		O=S(=O)(Nc1nn(Cc2ccccc2)cc1C1CCCCC1)c1ccccc1 [Compound 103, N-(1-benzyl-4-cyclohexyl-pyrazol-3-yl)benzenesulfonamide]		
30 to 60	< 1	O=S(=O)(Nc1nc(Oc2ccccc2)nc(-c2ccccc2)n1)c1ccccc1 [Compound 125, N-(4-phenoxy-6-phenyl-1,3,5-triazin-2-yl)benzenesulfonamide]		
